Series [1] deals with human iPS cell-derived T lymphocyte.
Series [2] shares this test system. Description: Division kinetics of human iPS cell-derived T lymphocyte stimulated with PHA (CytoB, CBPI; Comparative Example 2). Format: cell-based. The conditions noted are these: CytoB 24 hr.
The test system is the same in series [3]. Description: Proliferation ability of human iPS cell-derived T lymphocyte by various proliferation stimulation factors (ATP amount, CellTiter-Glo; Comparative Example 1). Format: cell-based. Background: In ATP-based viability assays light output follows the ATP content of the culture.
The subject of series [4] is human peripheral blood-derived mononuclear cells PBMC (feeder cell, 35Gy X-ray). Description: Division kinetics of feeder cells alone under PHA stimulation (comparison control, Comparative Example 2). Type of series: cell-based. The conditions noted are these: feeder cell only, 5 μg/mL PHA, CytoB 24 hr.
For series [5] the following is noted: from known documents (Kirkland 2016; Lasne 1984); cited from earlier work.
The test system of series [6] is human iPS cell-derived T lymphocyte. Description: In vitro chromosomal aberration test using human iPS cell-derived T lymphocyte (Example 5). Format: cell-based. Here is the method:
As human iPS cell-derived T lymphocyte, redifferentiated T lymphocyte derived from human iPS cell line “2” described in Example 1(1) was used. […] A test substance was used at the treatment dose (final concentration in medium) described in Table 7. For the treatment, a test substance was dissolved in PBS at a 100-fold concentration of the final concentration in the medium for addition at 1% (v/v). Treatment with a test substance was performed according to the process described in (4). […] After about 14 hr of culture, the total amount of the cell suspension was recovered by pipetting. The cell suspension was diluted with Rh-5 medium to a cell density of 2.0×10^5 cells/mL and reseeded in a 12 well plate not coated with the antibody at 2 mL per well, and culture was continued. Treatments with MMC, EMS and MAN were performed according to the method described below. That is, after about 24 hr from the reseeding in (3), a solution (20 μL) obtained by dissolving a test substance in PBS at a 100-fold concentration of the final concentration described in Table 5 was further added and the cells were treated for 27 hr. Different from a test substance treatment group, PBS (20 μL) was added and a similar treatment was performed for 27 hr to prepare a negative control group. About 2 hr before completion of the treatment, KaryoMAX (registered trade mark) Colcemid™ Solution in HBSS (Life technologies) (20 μL) was added to the well (final concentration in medium: 0.1 μg/mL) to discontinue the cell cycle, and cells in mitotic metaphase were enriched. At the time of start of the test substance treatment, a part of the cell suspension of the negative control group was separated and the number of the cells was measured using a counting chamber. […] All remaining cell suspension was collected in a centrifuge tube and PBS was added to a total volume of 5 mL, after which the mixture was centrifuged (1000 rpm, 5 min). The supernatant was removed, 75 mM KCl heated to 37° C. was added and a hypotonic treatment was performed for 5 min. To the cell suspension after the hypotonicity was added 1/5 volume of a fixation solution (methanol:glacial acetic acid=3:1), and the cells were semi-fixed and centrifuged (4° C., 1000 rpm, 3 min). After centrifugation, the supernatant was substituted with a fresh fixation solution, and the cells were fixed and centrifuged (4° C., 1000 rpm, 3 min). The operation was repeated 3 times, and the cells were sufficiently fixed and centrifuged again (4° C., 1000 rpm, 3 min). The cells were suspended in a small amount of a fixation solution. […] Chromosomal abnormalities were classified into chromatid break, chromosome break, chromatid exchange, chromosome exchange, and other structural abnormalities and counted. […]

Series [7] shares this test system. Description: In vitro comet assay using human iPS cell-derived T lymphocyte (Example 6). Format: cell-based. The procedure:
As human iPS cell-derived T lymphocyte, redifferentiated T lymphocyte derived from human iPS cell line “2” described in Example 1(1) was used. […] A test substance was used at the treatment dose (final concentration in medium) described in Table 9. For the treatment, a test substance was dissolved in PBS at a 100-fold concentration of the final concentration in the medium for addition at 1% (v/v). A test substance was treated according to the process described in (4). […] Each well was washed twice with 1 mL of PBS, redifferentiated T lymphocytes derived from human iPS cell line described in (1) were suspended in Rh-medium at a cell density of 2.0×10^6 cells/mL and added to each well. After about 13 hr of culture, the total amount of the cell suspension was recovered by pipetting. The cell suspension was diluted with Rh-5 medium to a cell density of 2.0×10^5 cells/mL and reseeded in a 24 well plate not coated with the antibody at 1 mL per well, and culture was continued. Treatments with EMS and MAN were performed according to the method described below. That is, after about 24 hr from the reseeding in (3), a solution (10 μL) obtained by dissolving a test substance in PBS at a 100-fold concentration of the final concentration described in Table 9 was further added and the cells were treated for 4 hr. […] On completion of the additional culture, a part of the cell suspension was separated and the number of the cells was measured using a counting chamber. […] The prepared specimen was stained for nucleic acid using SYBR (registered trade mark) Gold, and observed under a fluorescence microscope at 200-fold magnification. 75 nuclei per specimen and 150 nuclei in two specimens per condition were imaged, % tail DNA was calculated using an image analyzer Comet Assay IV, and DNA damaging activity was determined. The % tail DNA was calculated as a percentage of the fluorescence brightness of the tail to the fluorescence brightness of the whole cell nucleus. […]

For series [8] the following is noted: from known documents (Kirkland 2016; Lasne 1984); cited from earlier work. This is another data set of the same source.
The conditions of series [9]: from known documents (Kirkland 2016; Lasne 1984; Aardema 2006); cited from earlier work.
Where [10] appears, read: absence of feeder cells, 3 μg/mL PHA, 426 cells observed.
The mark [11] stands for this setting: coculture with feeder cells, 5 μg/mL PHA, 500 cells observed.
Setting [12] is: proliferation stimulation for 66 hr.
Setting [13] is: iPS cell line 2, 27 hr treatment, doses of Table 7, 300 metaphase cells, Fisher's exact test.

Like-named read-outs stand apart in the source and are kept apart here.

The text below walks through data of patent US20190345536A1, “DETECTION METHOD FOR CHROMOSOMAL ABNORMALITIES AND METHOD FOR EVALUATING INDUCIBILITY” (Sumitomo Chemical Company, Limited, priority 2016, published 2019).

For the compound bleomycin sulfate [BLM], the “judgment result obtained in this Example (in vitro micronucleus test)” value in [1] was “positive”.

For `O=P1(N(CCCl)CCCl)NCCCO1` (centres unmarked) [CPA, cyclophosphamide monohydrate], the “judgment result obtained in this Example (in vitro micronucleus test)” value in [1] was “positive”.

In the case of phytohemagglutinin [PHA], the CBPI in [2] (absence of feeder cells, 3 μg/mL PHA) was 1.39; in [2] (coculture with feeder cells, 5 μg/mL PHA), 1.15; in [4], 1.03. Besides, the binucleated cell number in series [2] (setting [10]) amounted to 160; in series [2] (setting [11]), 71; in series [4] (500 cells observed), 11. The values for the mononucleated cell number in series [2] (setting [10]), in series [2] (setting [11]) and in series [4] (500 cells observed) were 262, 426 and 488, respectively. Further, the multinucleated cell number was found to be 4 in [2] (setting [10]), 3 in [2] (setting [11]) and 1 in series [4] (500 cells observed). For the same compound, the “luminescent signal (count)” value in series [3] (1 μg/mL PHA, 66 hr, background subtracted) came out at 10984 count; in series [3] (5 μg/mL PHA, 66 hr, background subtracted), 15024 count. In addition, the proliferation rate in series [3] (1 μg/mL PHA, 66 hr, percentage of signal at seeding) is on record as 8.5%; in series [3] (5 μg/mL PHA, 66 hr, percentage of signal at seeding) it was 11.7%. Further, the “proliferation of human iPS cell-derived T lymphocyte by proliferation stimulation” value (“proliferation … by proliferation stimulation” below) in series [3] (setting [12]) was “does not proliferate”.

On to `OC[C@@H](O)[C@@H](O)[C@H](O)[C@H](O)CO` [MAN, D(−)-mannitol], for which, in [5], the “judgment result expected from known information (in vitro chromosomal aberration test)” value was “negative”. For the same compound, in series [6] (all doses (FIG. 12)), the “increase in frequency of chromosomal aberration” value was “no statistically significant increase”. Besides, the “judgment result obtained in this Example (in vitro chromosomal aberration test)” value in series [6] (setting [13]) is reported as “negative”. Also, the “increase in % tail DNA” value in [7] (all doses (FIG. 14)) was “no statistically significant increase”. For the same compound, in series [7] (iPS cell line 2, 4 hr treatment, doses of Table 9, % tail DNA, Dunnett's test), the “judgment result obtained in this Example (in vitro comet assay)” value is recorded as “negative”. Moreover, in [1], the “increase in frequency of micronucleus” value is on record as “no statistically significant increase” and the “judgment result obtained in this Example (in vitro micronucleus test)” value is listed as “negative”. The “judgment result expected from known information (in vitro comet assay)” value in [8] is reported as “negative”. Moreover, the “judgment result expected from known information (in vitro micronucleus test)” value in [9] was “negative”.

In the case of `CCOS(C)(=O)=O` [EMS, ethyl methanesulfonate], the “judgment result obtained in this Example (in vitro chromosomal aberration test)” value in [6] is “positive”. The “judgment result obtained in this Example (in vitro comet assay)” value in [7] was “positive”. Moreover, the “judgment result obtained in this Example (in vitro micronucleus test)” value in [1] is recorded as “positive”.

Consider `CO[C@@]12[C@H](COC(N)=O)C3=C(C(=O)C(C)=C(N)C3=O)N1C[C@@H]1N[C@@H]12` [MMC, mitomycin C], for which the “judgment result expected from known information (in vitro chromosomal aberration test)” value in series [5] is recorded as “positive”. The “judgment result obtained in this Example (in vitro chromosomal aberration test)” value in series [6] (setting [13]) is listed as “positive”. Moreover, in [1], the “judgment result obtained in this Example (in vitro micronucleus test)” value was “positive”.

As for `C[C@H](CCC(=O)O)C[C@H](C)C[C@H](C)C(=O)/C=C(\O)[C@H](C)C[C@H](C)C/C=C/[C@@H](C)[C@@H](O)[C@@H](C)[C@@H](O)C[C@@H]1CC[C@@](C)([C@H]2CC[C@@](C)([C@@H](C)O)O2)O1` [Ionomycin], in [3], the “proliferation … by proliferation stimulation” value was “does not proliferate”.

As to `CCCCCCCCCCCCCC(=O)O[C@@H]1[C@@H](C)[C@@]2(O)[C@@H](C=C(CO)C[C@]3(O)C(=O)C(C)=C[C@@H]23)[C@@H]2C(C)(C)[C@]12OC(C)=O` [PMA, phorbol 12-myristate 13-acetate], in series [3], the “luminescent signal (count)” value is 5784 count, the “proliferation … by proliferation stimulation” value is given as “does not proliferate” and the proliferation rate is 4.5%.

Regarding Concanavalin A [Con A], the “luminescent signal (count)” value in series [3] (5 μg/mL Con A, 66 hr, background subtracted) is 10064 count. In [3] (5 μg/mL Con A, 66 hr, percentage of signal at seeding), this compound returned a proliferation rate of 7.8%. The “proliferation … by proliferation stimulation” value in series [3] (setting [12]) is on record as “does not proliferate”.
